According to ChEMBL document CHEMBL1201862, “PubChem BioAssay data set” (2004):
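Each compound was tested at five concentrations against cells in 96-well plates for 48 hours. GI50 marks 50% less growth.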 Active and inactive are the calls of the source. Rule as the data show it: active = GI50 up to about 1.1 µM and inactive = higher.

Columns and labels:
Test in all cases: growth of human tumour cells (NCI), 48 h
SNB-75 = system: SNB-75
NCI/ADR-RES = system: NCI/ADR-RES
SK-MEL-2 = system: SK-MEL-2
SNB-19 = system: SNB-19
SF-295 = system: SF-295
PC-3 = system: PC-3
UO-31 = system: UO-31
A498 = system: A498
HOP-62 = system: HOP-62
MDA-MB-435 = system: MDA-MB-435
A549 = system: A549
SW-620 = system: SW-620
OVCAR-4 = system: OVCAR-4
HOP-92 = system: HOP-92
NCI-H522 = system: NCI-H522
HCT-15 = system: HCT-15
SR = system: SR
ACHN = system: ACHN
OVCAR-8 = system: OVCAR-8
SK-MEL-28 = system: SK-MEL-28
786-0 = system: 786-0
COLO 205 = system: COLO 205
K562 = system: K562
SN12C = system: SN12C
SF-539 = system: SF-539
U-251 = system: U-251
NCI-H460 = system: NCI-H460
LOX IMVI = system: LOX IMVI
M14 = system: M14
IGROV-1 = system: IGROV-1
NCI-H226 = system: NCI-H226
RPMI-8226 = system: RPMI-8226
EKVX = system: EKVX
MDA-N = system: MDA-N
HL-60 = system: HL-60
NCI-H23 = system: NCI-H23
SK-OV-3 = system: SK-OV-3
OVCAR-5 = system: OVCAR-5
CAKI-1 = system: CAKI-1
OVCAR-3 = system: OVCAR-3
T47D = system: T47D
HCC 2998 = system: HCC 2998
MCF7 = system: MCF7
HCT-116 = system: HCT-116
DU-145 = system: DU-145
CCRF-CEM = system: CCRF-CEM
TK-10 = system: TK-10
SK-MEL-5 = system: SK-MEL-5
KM12 = system: KM12
Hs-578T = system: Hs-578T
HT-29 = system: HT-29
MOLT-4 = system: MOLT-4
SF-268 = system: SF-268

CCc1cc(-c2nsc(=O)o2)c(S(=O)(=O)CC)s1
GI50 (SNB-75): > 100 µM (inactive) | GI50 (NCI/ADR-RES): > 100 µM (inactive) | GI50 (SK-MEL-2): 95.5 µM (inactive) | GI50 (SNB-19): 77.8 µM (inactive) | GI50 (SF-295): > 100 µM (inactive) | GI50 (PC-3): 33.4 µM (inactive) | GI50 (UO-31): > 100 µM (inactive) | GI50 (A498): > 100 µM (inactive) | GI50 (HOP-62): > 100 µM (inactive) | GI50 (MDA-MB-435): 55.3 µM (inactive) | GI50 (A549): > 100 µM (inactive) | GI50 (SW-620): 61 µM (inactive) | GI50 (OVCAR-4): > 100 µM (inactive) | GI50 (HOP-92): 98.9 µM (inactive) | GI50 (NCI-H522): 22.2 µM (inactive) | GI50 (HCT-15): 52.7 µM | GI50 (SR): 38.3 µM (inactive) | GI50 (ACHN): > 100 µM (inactive) | GI50 (OVCAR-8): 88.1 µM (inactive) | GI50 (SK-MEL-28): 49.3 µM (inactive) | GI50 (786-0): > 100 µM (inactive) | GI50 (COLO 205): > 100 µM (inactive) | GI50 (K562): 37.2 µM (inactive) | GI50 (SN12C): > 100 µM (inactive) | GI50 (SF-539): > 100 µM (inactive) | GI50 (U-251): > 100 µM (inactive) | GI50 (NCI-H460): > 100 µM (inactive) | GI50 (LOX IMVI): 56.6 µM (inactive) | GI50 (M14): 76 µM (inactive) | GI50 (IGROV-1): 34 µM (inactive) | GI50 (NCI-H226): > 100 µM (inactive) | GI50 (RPMI-8226): 49.4 µM (inactive) | GI50 (EKVX): > 100 µM (inactive) | GI50 (MDA-N): 75 µM (inactive) | GI50 (HL-60): 951 nM (active) | GI50 (NCI-H23): 45.4 µM (inactive) | GI50 (SK-OV-3): > 100 µM (inactive) | GI50 (OVCAR-5): > 100 µM (inactive) | GI50 (CAKI-1): 56.9 µM (inactive) | GI50 (OVCAR-3): > 100 µM (inactive) | GI50 (T47D): 76.7 µM (inactive) | GI50 (HCC 2998): 37.2 µM (inactive) | GI50 (MCF7): 26.7 µM (inactive) | GI50 (HCT-116): 43.3 µM (inactive) | GI50 (DU-145): > 100 µM (inactive) | GI50 (CCRF-CEM): 32.6 µM (inactive) | GI50 (TK-10): > 100 µM (inactive) | GI50 (SK-MEL-5): > 100 µM (inactive) | GI50 (KM12): 38.4 µM (inactive) | GI50 (Hs-578T): > 100 µM (inactive) | GI50 (HT-29): 84.9 µM (inactive) | GI50 (MOLT-4): > 10 µM (inactive) | GI50 (SF-268): 86.9 µM (inactive)
